Measurements taken from publication PMC4067310, “From Pan-Reactive KV7 Channel Opener to Subtype Selective Opener/Inhibitor by Addition of a Methyl Group” (PLoS ONE, 2014).
“And” between values parts separate entries of the source, which are not always exact repeats. Equal entries are not always repeated.

Key:
KV7.2 = target: T1, KV7.2 (Homo sapiens, UniProt O43526); experiment: Two-electrode voltage-clamp of KV7.2 expressed in Xenopus laevis oocytes; assay type: cell-based
T1 construct: expressed in transfected cells; host or cells: Xenopus laevis oocytes injected with cRNA (pGEM-HE vector)
T1 sequence (O43526 whole entry): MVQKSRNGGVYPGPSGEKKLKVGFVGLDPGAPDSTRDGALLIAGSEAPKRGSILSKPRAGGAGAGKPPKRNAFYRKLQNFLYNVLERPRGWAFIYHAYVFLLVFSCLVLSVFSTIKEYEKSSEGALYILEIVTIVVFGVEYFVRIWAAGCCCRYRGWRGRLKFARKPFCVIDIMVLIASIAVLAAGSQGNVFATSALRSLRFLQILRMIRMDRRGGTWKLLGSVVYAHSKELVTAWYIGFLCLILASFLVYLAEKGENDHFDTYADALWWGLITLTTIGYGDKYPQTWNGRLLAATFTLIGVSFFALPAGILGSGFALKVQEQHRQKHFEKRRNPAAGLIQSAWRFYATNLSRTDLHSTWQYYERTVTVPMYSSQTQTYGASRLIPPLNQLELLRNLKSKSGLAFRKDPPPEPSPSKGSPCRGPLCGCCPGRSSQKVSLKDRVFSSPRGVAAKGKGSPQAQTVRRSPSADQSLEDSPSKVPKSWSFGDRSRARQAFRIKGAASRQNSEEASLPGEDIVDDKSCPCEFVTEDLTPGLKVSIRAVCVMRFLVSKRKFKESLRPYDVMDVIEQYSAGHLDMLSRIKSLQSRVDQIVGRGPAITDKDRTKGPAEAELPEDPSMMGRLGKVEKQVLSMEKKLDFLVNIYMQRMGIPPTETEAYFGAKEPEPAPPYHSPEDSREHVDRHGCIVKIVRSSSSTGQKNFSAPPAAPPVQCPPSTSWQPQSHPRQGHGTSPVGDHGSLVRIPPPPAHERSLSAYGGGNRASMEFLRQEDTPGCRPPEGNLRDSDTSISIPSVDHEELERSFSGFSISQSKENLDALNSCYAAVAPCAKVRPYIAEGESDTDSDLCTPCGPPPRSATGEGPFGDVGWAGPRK
Experimental: (§1) Point mutations were introduced using mutated oligonucleotide extension (PfuTurbo Polymerase, Stratagene, La Jolla, CA, USA) from a plasmid template harboring the cDNA of interest, digested with DpnI (Fermentas, St. Leon-Roth, Germany) and transformed into E.coli XL1 Blue cells. The construct was verified by complete DNA sequencing of the cDNA insert. cRNA was prepared from linearized human wild-type (WT) and mutant KV7 channels in the pGEM-HE vector using the T7 m-Message Machine kit (Ambion, Austin, TX, USA) according to the manufacturer's instructions.
(§2) Extraction of Xenopus laevis oocytes and injection of cRNA was performed as described previously. Oocytes were kept in Modified Barth's Saline (in mM: 88 NaCl, 1 KCl, 2.4 NaHCO3, 0.41 CaCl2, 0.82 MgSO4, 0.3 Ca(NO3)2, 15 HEPES, pH 7.4 supplemented with 100 U/mL penicillin and 100 µg/mL streptomycin) at 18°C, and currents were recorded after 2-7 days. The care of Xenopus laevis and the oocyte extraction procedure were performed according to national guidelines and approved by the Danish Animal Experiments Inspectorate.
(§3) KV7 currents in Xenopus laevis oocytes were recorded using two-electrode voltage-clamp at room temperature in Ringer buffer (in mM: 115 NaCl, 2.5 KCl, 1.8 CaCl2, 0.1 MgCl2, 10 HEPES, pH 7.4) as described previously. Data was acquired using pCLAMP 10.2 software (Molecular Devices, CA, USA) and analyzed using pCLAMP 10.2 and GraphPad Prism 4.0 (GraphPad Software Inc., CA, USA). Currents were elicited from a holding potential of −80 mV by 5 s steps to potentials between −100 and +50 mV in 10 mV increments, followed by a 2 s step to −120 mV.
SMB-1 was dissolved in dimethyl sulfoxide (DMSO) to obtain a concentrated stock solution. On the day of experiments the stock solution was thawed and diluted in Ringer buffer to the final concentrations. A concentration of 10 µM SMB-1 was used unless indicated otherwise. The final DMSO concentration never exceeded 0.1%.
Current – voltage (I–V) relationship curves were generated by normalizing the steady-state peak current measured at potentials between −100 and +50 mV to the current measured at +50 mV in control recordings and plotting the values against the test potential.
The voltage-dependence of activation was determined from tail current analysis using the current measured immediately after the transient capacitive current after stepping to −120 mV from potentials between −100 mV and +50 mV. Data was normalized to extend from 0–1 and the tail current-voltage relationship was fitted to the Boltzmann equation: [drawing 1] (Equation\;1) where I max is the maximum tail current, I min is the minimum tail current, V0.5 is the potential for half maximal activation and k is the slope factor. A V0.5 was calculated for each individual experiment and statistical significance was estimated by paired two-tailed Student's t-test.
Activation kinetics for KV7.2 and KV7.2-W236L was determined by fitting the traces recorded at potentials between −40 and +40 mV to a double exponential function: [drawing 2] (Equation\;2) where I(t) is the current at time t, Ifast and Islow are the current amplitudes at infinite times, and τfast and τslow are the time constants of the fast and slow components, respectively.
For investigation of deactivation kinetics the tail current traces recorded at −120 mV when stepping from the channels' respective ∼V0.5 were fitted to a single exponential function (Eq. 3).
Dose-response curves from electrophysiological experiments were made by plotting the increase in steady state current at +50 mV expressed in percentages as a function of drug concentration. The data were then analyzed by non-linear regression and fitted to the equation for sigmoidal dose-response with variable slope: [drawing 4] (Equation\;4) where R1 is the initial response, R2 is the maximum response, X is the logarithm of the drug concentration and nH is the slope (Hill coefficient) of the curve.

KV7.2-L275V = target: T2, KV7.2-L275V (Homo sapiens, UniProt O43526, L275V); experiment: Two-electrode voltage-clamp of mutant KV7.2-L275V in Xenopus laevis oocytes; assay type: cell-based; settings: 10 µM SMB-1, +50 mV, n = 4; read-out: current amplitude, % of control
T2 construct: expressed in transfected cells; host or cells: Xenopus laevis oocytes injected with cRNA (pGEM-HE vector)
T2 sequence (O43526 whole entry L275V): as the sequence (O43526 whole entry) above, with L275V counted along it
Experimental: as §1
as §2, with “The care of Xenopus laevis and the oocyte extraction procedure were performed according to national guidelines and approved by the Danish Animal Experiments Inspectorate.” left out
as §3, with “Currents were elicited from a holding potential of −80 mV by 5 s steps to potentials between −100 and +50 mV in 10 mV increments, followed by a 2 s step to −120 mV.” left out

KV7.2-L299V = target: T3, KV7.2-L299V (Homo sapiens, UniProt O43526, L299V); experiment: Two-electrode voltage-clamp of mutant KV7.2-L299V in Xenopus laevis oocytes; assay type: cell-based; settings: 10 µM SMB-1, +50 mV, n = 4; read-out: current amplitude, % of control
T3 construct: expressed in transfected cells; host or cells: Xenopus laevis oocytes injected with cRNA (pGEM-HE vector)
T3 sequence (O43526 whole entry L299V): as the sequence (O43526 whole entry) above, with L299V counted along it
Experimental: as §1
as §2, with “The care of Xenopus laevis and the oocyte extraction procedure were performed according to national guidelines and approved by the Danish Animal Experiments Inspectorate.” left out
as §3, with “Currents were elicited from a holding potential of −80 mV by 5 s steps to potentials between −100 and +50 mV in 10 mV increments, followed by a 2 s step to −120 mV.” left out

[1] = Free fraction by equilibrium dialysis, rat brain homogenate; assay type: in vitro ADME; settings: equilibrium dialysis 37°C 5 h, mean ± S.E.M., n = 3
Experimental: The bidirectional permeability (Papp) of SMB-1 was examined in an MDCK cell system expressing human MDR1 [ABCB1, P-glycoprotein (P-gp)] as described previously. Permeation of the test compound from apical (A) to basal (B) direction or B to A direction was determined in triplicate over a 150-min incubation at 37°C. The efflux ratio was calculated as the ratio between Papp (B to A) and Papp (A to B). Free fraction of SMB-1 was determined using a standard equilibrium dialysis methodology with freshly isolated rat brain homogenate or plasma. Equilibrium dialysis was performed by incubating at 37°C for 5 h in triplicates.

- effect on τact_fast (KV7.2; 10 µM): did not affect
- remaining activity at 10 µM (KV7.2; 10 µM SMB-1, +50 mV, n = 9, read-out: current amplitude, % of control): 81.7 ± 3.1%
- effect on τact_slow (KV7.2; 10 µM, at −20 mV and above): increased
- τdeact, deactivation time constant in presence of compound (KV7.2; 10 µM, control 20.2±1.4 ms, n = 7, p<0.001): 37.3 ± 3.3 ms
- V0.5, voltage-dependence of activation in presence of compound (KV7.2; 10 µM, control −22.5±2.2 mV, n = 8, p<0.05): -18.0±2.7 mV
- IC50 (KV7.2; current amplitude at +50 mV, 0.4, 2, 10 and 50 µM, n = 5): ~7.4 µM and 7.4 µM
- remaining activity at 10 µM (KV7.2-L275V): 90.4 ± 4.1%
- remaining activity at 10 µM (KV7.2-L299V): 69.3 ± 5.6%
- fraction unbound at 5 h [1]: 0.001 ± 0.001
SMILES: C[C@@H](c1ccc2c(c1)N(CC1CC1)CCO2)N(C)C(=O)/C=C/c1ccccc1F [SMB-1, (E)-N-[(S)-1-(4-Cyclopropylmethyl-3,4-dihydro-2H-1,4-benzoxazin-6-yl)-ethyl]-3-(2-fluoro-phenyl)-N-methyl-acrylamide]
